Laboratory results published in ChEMBL document CHEMBL1201862, “PubChem BioAssay data set” (2004).
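Step 1: Grow cells in 96-well plates. Step 2: Expose to compound for 48 hours at 5 concentrations. Step 3: Interpolate endpoints linearly; if unreached, use highest concentration. GI50: concentration for 50% inhibition of growth.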 Active and inactive are the calls of the source. Rule as the data show it: active = GI50 up to about 1.1 µM and inactive = higher.

Columns and labels:
Assay in all cases: NCI anticancer screen, dose series, 48 h
OVCAR-3 = test system: OVCAR-3
SK-OV-3 = test system: SK-OV-3
PC-3 = test system: PC-3
A498 = test system: A498
786-0 = test system: 786-0
MOLT-4 = test system: MOLT-4
T47D = test system: T47D
UACC-257 = test system: UACC-257
SF-268 = test system: SF-268
SK-MEL-2 = test system: SK-MEL-2
DU-145 = test system: DU-145
NCI-H226 = test system: NCI-H226
CCRF-CEM = test system: CCRF-CEM
MDA-N = test system: MDA-N
HCT-116 = test system: HCT-116
KM12 = test system: KM12
SN12C = test system: SN12C
SNB-75 = test system: SNB-75
A549 = test system: A549
SR = test system: SR

Measured: GI50

Cc1cc(OCc2nn(CN3CCN(C)CC3)c(=S)n2/N=C/c2ccc(-c3ccc(Cl)cc3Cl)o2)ccc1Cl
inactive: OVCAR-3 80 µM | SK-OV-3 > 100 µM | PC-3 85.3 µM | A498 36.3 µM | 786-0 90.2 µM | MOLT-4 67.8 µM | T47D 38 µM | UACC-257 53.5 µM | SF-268 33.1 µM | SK-MEL-2 > 100 µM | DU-145 > 100 µM | NCI-H226 40.4 µM | CCRF-CEM 35.3 µM | MDA-N 39.3 µM | HCT-116 > 100 µM | KM12 20.3 µM

COc1ccc(O)c(/C=N/CCC/N=C/c2cc(OC)ccc2O)c1
inactive: OVCAR-3 6.59 µM | SN12C 30 µM | PC-3 24.5 µM | A498 8.91 µM | SNB-75 18.3 µM | 786-0 33.7 µM | MOLT-4 16.6 µM | UACC-257 23.7 µM | SK-MEL-2 31.6 µM | DU-145 22 µM | NCI-H226 27.4 µM | A549 70.8 µM | CCRF-CEM 3.8 µM | MDA-N 31.3 µM | HCT-116 40.8 µM | SR 14 µM | KM12 13.8 µM

Cc1oc2nc(N(C)C)nc(Cl)c2c1C
inactive: OVCAR-3 > 100 µM | SN12C > 100 µM | PC-3 > 100 µM | A498 29.9 µM | SNB-75 3.89 µM | 786-0 > 100 µM | MOLT-4 > 100 µM | T47D 46.7 µM | UACC-257 > 100 µM | SF-268 > 100 µM | SK-MEL-2 > 100 µM | DU-145 > 100 µM | NCI-H226 84.1 µM | A549 > 100 µM | CCRF-CEM > 100 µM | HCT-116 > 100 µM | KM12 > 100 µM

COc1cc(OC)cc(-c2cc(=O)c3c(OC)c(OC)c(OC)c(OC)c3o2)c1
inactive: OVCAR-3 18.8 µM | SN12C 26.4 µM | SK-OV-3 5.93 µM | A498 23 µM | SNB-75 20 µM | 786-0 29.9 µM | MOLT-4 18.3 µM | T47D 20.9 µM | UACC-257 39.2 µM | SF-268 29.6 µM | SK-MEL-2 18 µM | DU-145 30.2 µM | NCI-H226 32.1 µM | A549 33.8 µM | CCRF-CEM 20.5 µM | MDA-N 41.2 µM | HCT-116 31.3 µM | SR > 100 µM

CCOC(=O)C(=[N+]=[N-])C(=O)Nc1nn2nnnc2c2ccccc12
inactive: OVCAR-3 > 100 µM | SN12C > 100 µM | SK-OV-3 > 100 µM | PC-3 > 100 µM | A498 > 100 µM | SNB-75 33.8 µM | 786-0 > 100 µM | MOLT-4 > 100 µM | UACC-257 > 100 µM | SK-MEL-2 > 100 µM | DU-145 > 100 µM | NCI-H226 > 100 µM | A549 > 100 µM | CCRF-CEM > 100 µM | MDA-N > 100 µM | HCT-116 > 100 µM | SR > 100 µM | KM12 > 100 µM

Cc1[nH]n(-c2nc(-c3ccccc3)cc(=O)[nH]2)c(=O)c1CCO
inactive: OVCAR-3 > 100 µM | SN12C > 100 µM | SK-OV-3 > 100 µM | PC-3 > 100 µM | 786-0 > 100 µM | MOLT-4 63.5 µM | T47D > 100 µM | UACC-257 > 100 µM | SF-268 > 100 µM | SK-MEL-2 > 100 µM | DU-145 > 100 µM | NCI-H226 > 100 µM | A549 > 100 µM | CCRF-CEM > 100 µM | MDA-N > 100 µM | HCT-116 > 100 µM | KM12 > 100 µM

O=C(Nc1nc(C23CC4CC(CC(C4)C2)C3)cs1)c1cc2cc([N+](=O)[O-])ccc2oc1=O
inactive: OVCAR-3 73.3 µM | SN12C > 100 µM | PC-3 56.9 µM | A498 36.3 µM | SNB-75 20.3 µM | 786-0 17.7 µM | MOLT-4 57.8 µM | UACC-257 > 100 µM | SF-268 26.2 µM | DU-145 86.7 µM | NCI-H226 > 100 µM | A549 70.5 µM | CCRF-CEM 55.6 µM | MDA-N > 100 µM | HCT-116 37 µM | SR 68.4 µM | KM12 > 100 µM

CCC1OC2(C)CC(C#N)(C#N)C1(C#N)C(=N)O2 (stereo not drawn)
inactive: OVCAR-3 > 100 µM | SN12C > 100 µM | SK-OV-3 > 100 µM | PC-3 > 100 µM | A498 > 100 µM | SNB-75 > 100 µM | 786-0 > 100 µM | MOLT-4 > 100 µM | T47D > 100 µM | UACC-257 > 100 µM | SF-268 > 100 µM | SK-MEL-2 > 100 µM | DU-145 > 100 µM | A549 > 100 µM | CCRF-CEM > 100 µM | MDA-N > 100 µM | HCT-116 > 100 µM | KM12 > 100 µM
